Read-outs that look alike come from different tables or passages of the source.
How the values were obtained:
[1] = test system: Indomethacin-induced gastric ulceration; experiment: Indomethacin-induced gastric ulceration model in rats; type: in vivo, female albino Wistar rats; conditions: oral, 1 hour before indomethacin 30 mg/kg p.o.; for ED (effect similar to omeprazole 10 mg/kg): Rattus norvegicus, read-out: Indomethacin-induced ulcer model (dose @ which effect is similar to 10mpk of omeprazole)
Experimental: The anti-ulcer efficacy of various test compounds (I-A-1 to I-A-11, I-B-1 to I-B-3) was assessed in Indomethacin—induced gastric ulceration model in female albino Wistar rats (Bhattacharya S., Banerjee D., Bauri A. K., Chattopadhyay S., Bandyopadhyay S. K. Healing property of the piper betelphenol, allylpyrocatechol against indomethacin-induced stomach ulceration and mechanism of action. World J Gastroenterol., 13(27): 3705-13, 2007; Lee A. Animal models of gastroduodenal ulcer disease. Bailliere's Best Pract. Res. Clinic Gastroenterol., 14(1): 75-96, 2000). The test compounds were administered orally at various doses (0.2, 0.4, 0.8 and 1.6 mg/kg) in comparison to Omeprazole (10 mg/kg) as standard comparator.
Experiments were conducted in overnight fasted healthy female albino Wistar rats maintained at controlled environmental conditions of temperature and humidity with water given ad libitum. Non-steroidal anti-inflammatory drug (NSAID), Indomethacin (30 mg/kg, p.o.) was used to induce gastric ulcer (treatment groups) with a comparative group without indomethacin treatment (negative group). Indomethacin was administered to treatment groups 1 hour after oral treatment with Vehicle (1% CMC), various doses of test compounds (EPPIs) and Omeprazole (10 mg/kg). After 4-6 hours after indomethacin administration, the animals were sacrificed by cervical dislocation and their stomach was dissected out. Various parameters like macroscopic ulcer index, gastric mucus content and gastric acid pH measurements were undertaken. The rat stomachs were cut opened along the greater curvature for macroscopic determination of ulcer index.

H^+/K^+ ATPase [2] = target: T1, H^+/K^+ ATPase (Oryctolagus cuniculus, UniProt P27112); experiment: H+K+-ATPase assay (p-NPP to p-NP), enzyme from rabbit fundus; type: biochemical; conditions: pH 6.0, 30 min pre-incubation at 37° C.
T1 construct: using an enzyme isolated from the rabbit or porcine (pig) fundus; from tissue; host or cells: rabbit gastric fundus
Experimental: (§1) H+K+-ATPase Assay Protocol Description:
(§2) Evaluation of the effects of compounds on the activity of the H^+/K^+ ATPase activity was quantified by measuring the formation of para-nitrophenol (p-NP) from para-nitrophenol phosphate (p-NPP) using an enzyme isolated from the rabbit or porcine (pig) fundus.
(§3) The test compound, reference compound or water (control) are pre-incubated for 30 min at 37° C. with the enzyme (5 μg) in a buffer containing 40 mM Hepes/Tris (pH 6.0), 20 mM KCl, 5 mM MgCl2 and 1 mM ouabain. The enzymatic reaction was then initiated by the addition of 2 mM p-NPP.
(§4) The absorbance was measured immediately at k=405 nm using a microplate reader (EnVision, Perkin Elmer). This measurement at t=0 was also used to verify any compound interference with the spectrophotometric detection at the selected wavelength.
(§5) Thereafter, the mixture was incubated for 15 min at 37° C., after which time the reaction is stopped by addition of 0.5 M NaOH and a second measurement is made at the same wavelength (t=15). The enzyme activity is determined by subtracting the signal measured at t=0 from that measured at t=15. The results are expressed as a percent inhibition of the control enzyme activity.
(§6) The standard inhibitory reference compound is omeprazole,
(§7) Bibliographic reference: Dantzig, H., Minor, P. L. Garrigus, J. L., Fukuda, D. S. and Mynderse, J. S., Studies of the mechanism of action of A80915A, a semi-naphtolquinone natural product, as an inhibitor of gastric (H+/K+)-ATPase, Biochem. Pharmacol. (1991), 42: 2019.
(§8) Assay volume and format: 250 μl in 96-well plate
(§9) Compound addition: [100×] solution in solvent, then [10×] solution in water Maximum tolerable DMSO concentration: 1%

H^+/K^+ ATPase [3] = target: T2, H^+/K^+ ATPase (Sus scrofa, UniProt P19156); experiment: H+K+-ATPase assay (p-NPP to p-NP), enzyme from porcine (pig) fundus; type: biochemical; conditions: for IC50: enzyme from porcine fundus, pH 6.0, 30 min pre-incubation at 37° C.
T2 construct: using an enzyme isolated from the rabbit or porcine (pig) fundus; from tissue; host or cells: porcine (pig) gastric fundus
Experimental: as §1, §2, §3, §4, §5, §6, §7, §8, §9

H^+/K^+ ATPase [4] = target: T2, H^+/K^+ ATPase; conditions: literature value (Keeling et al., Biochem Pharmacol 1985); read-out: IC50 (Pig-Porcine); cited from earlier work
H^+/K^+ ATPase [5] = target: T1, H^+/K^+ ATPase; conditions: literature value (Scott and Sundell, Eur. J Pharmacol 1985); read-out: IC50 (Rabbit); cited from earlier work

T2 sequence (P19156 2-1034 limits assumed): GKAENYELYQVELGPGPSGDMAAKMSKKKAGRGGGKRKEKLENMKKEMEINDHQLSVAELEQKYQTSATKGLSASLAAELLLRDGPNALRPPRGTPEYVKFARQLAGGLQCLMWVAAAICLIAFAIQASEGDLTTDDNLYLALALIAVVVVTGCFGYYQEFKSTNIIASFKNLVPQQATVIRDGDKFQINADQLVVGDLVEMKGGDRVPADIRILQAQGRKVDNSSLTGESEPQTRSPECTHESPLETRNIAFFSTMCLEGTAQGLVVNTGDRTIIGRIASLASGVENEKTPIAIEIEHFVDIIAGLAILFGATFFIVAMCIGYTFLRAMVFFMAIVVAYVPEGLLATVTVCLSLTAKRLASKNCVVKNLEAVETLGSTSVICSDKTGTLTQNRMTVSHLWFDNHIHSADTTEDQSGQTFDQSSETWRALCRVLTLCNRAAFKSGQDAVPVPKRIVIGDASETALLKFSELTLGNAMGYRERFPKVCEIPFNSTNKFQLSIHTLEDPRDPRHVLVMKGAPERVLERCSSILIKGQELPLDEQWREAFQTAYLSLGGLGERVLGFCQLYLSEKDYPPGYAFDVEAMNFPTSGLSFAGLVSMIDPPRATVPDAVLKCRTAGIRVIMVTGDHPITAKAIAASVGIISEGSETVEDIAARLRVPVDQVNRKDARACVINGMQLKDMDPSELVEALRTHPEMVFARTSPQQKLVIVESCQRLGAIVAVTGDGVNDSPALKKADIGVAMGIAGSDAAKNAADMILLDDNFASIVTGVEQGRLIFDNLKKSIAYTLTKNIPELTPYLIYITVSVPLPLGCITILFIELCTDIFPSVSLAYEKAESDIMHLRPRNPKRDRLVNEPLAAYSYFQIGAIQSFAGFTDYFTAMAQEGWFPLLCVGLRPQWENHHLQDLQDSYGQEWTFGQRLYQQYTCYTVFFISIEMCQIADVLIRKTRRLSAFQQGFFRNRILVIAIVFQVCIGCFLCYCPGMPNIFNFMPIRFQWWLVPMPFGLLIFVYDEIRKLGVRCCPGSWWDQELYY
T2 sequence (P18434 whole entry partner): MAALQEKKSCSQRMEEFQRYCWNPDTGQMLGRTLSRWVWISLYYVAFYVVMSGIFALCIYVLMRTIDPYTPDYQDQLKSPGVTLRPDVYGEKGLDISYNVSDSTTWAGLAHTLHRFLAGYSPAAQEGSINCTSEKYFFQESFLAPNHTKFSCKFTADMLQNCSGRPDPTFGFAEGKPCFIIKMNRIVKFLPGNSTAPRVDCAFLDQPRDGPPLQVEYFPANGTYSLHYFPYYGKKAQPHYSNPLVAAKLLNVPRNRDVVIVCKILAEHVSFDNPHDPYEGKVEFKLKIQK
T1 sequence (P27112 2-1035 limits assumed): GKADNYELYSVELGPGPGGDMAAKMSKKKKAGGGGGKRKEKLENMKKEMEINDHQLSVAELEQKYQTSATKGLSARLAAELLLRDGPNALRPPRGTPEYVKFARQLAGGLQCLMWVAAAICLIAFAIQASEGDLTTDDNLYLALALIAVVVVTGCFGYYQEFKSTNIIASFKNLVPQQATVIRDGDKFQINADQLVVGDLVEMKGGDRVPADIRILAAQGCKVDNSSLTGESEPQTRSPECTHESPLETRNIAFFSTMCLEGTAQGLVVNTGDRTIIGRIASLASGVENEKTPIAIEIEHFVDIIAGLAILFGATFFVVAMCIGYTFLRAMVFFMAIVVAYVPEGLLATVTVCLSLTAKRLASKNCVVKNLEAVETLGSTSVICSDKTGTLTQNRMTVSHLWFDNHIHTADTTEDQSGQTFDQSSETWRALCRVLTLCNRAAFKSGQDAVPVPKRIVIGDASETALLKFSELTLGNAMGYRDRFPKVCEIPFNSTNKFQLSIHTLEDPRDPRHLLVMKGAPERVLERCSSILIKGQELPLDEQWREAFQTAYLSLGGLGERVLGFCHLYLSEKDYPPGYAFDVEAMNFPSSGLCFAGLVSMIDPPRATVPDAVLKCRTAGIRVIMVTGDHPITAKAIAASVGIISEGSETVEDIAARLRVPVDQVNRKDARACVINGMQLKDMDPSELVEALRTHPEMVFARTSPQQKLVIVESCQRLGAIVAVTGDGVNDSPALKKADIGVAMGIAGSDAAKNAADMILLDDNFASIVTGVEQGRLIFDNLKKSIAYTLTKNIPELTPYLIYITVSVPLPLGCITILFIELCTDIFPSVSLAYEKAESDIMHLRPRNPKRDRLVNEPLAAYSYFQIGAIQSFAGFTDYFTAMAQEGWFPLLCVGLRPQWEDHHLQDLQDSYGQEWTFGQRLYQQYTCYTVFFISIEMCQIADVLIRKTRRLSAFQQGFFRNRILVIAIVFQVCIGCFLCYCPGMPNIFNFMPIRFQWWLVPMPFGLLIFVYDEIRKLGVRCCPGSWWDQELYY
T1 sequence (P18597 whole entry partner): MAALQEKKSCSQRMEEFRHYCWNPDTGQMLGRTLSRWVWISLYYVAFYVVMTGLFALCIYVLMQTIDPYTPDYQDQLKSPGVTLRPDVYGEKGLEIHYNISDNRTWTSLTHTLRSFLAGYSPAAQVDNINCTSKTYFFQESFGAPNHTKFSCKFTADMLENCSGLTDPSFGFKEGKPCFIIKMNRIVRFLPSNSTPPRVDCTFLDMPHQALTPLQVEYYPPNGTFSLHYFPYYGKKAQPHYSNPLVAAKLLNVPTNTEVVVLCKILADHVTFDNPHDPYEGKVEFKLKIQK

Compound	Indomethacin-induced ulcer model (dose @ which effect is similar to 10mpk of omeprazole) [1]	IC50 (H^+/K^+ ATPase [2])	IC50 (H^+/K^+ ATPase [3])	ED (effect similar to omeprazole 10 mg/kg) [1]	percent inhibition of the control enzyme activity (printed in IC50 (Pig-Porcine) column) (H^+/K^+ ATPase [3]; @ 3-30 uM)	IC50 (H^+/K^+ ATPase [4])	IC50 (H^+/K^+ ATPase [5])
O=c1ccn(-c2nc3ccccc3[nH]2)c(C[S+]([O-])[S+]([O-])Cc2cc(=O)ccn2-c2nc3ccccc3[nH]2)c1 (centres unmarked) [I-A-1, 2-((2-((1-(1H-benzo[d]imidazol-2-yl)-1,4-dihydro-4-oxopyridin-2-yl)methyl)disulfinyl)methyl)-1-(1H-benzo[d]imidazol-2-yl)pyridin-4(1H)-one]	1.6 mg/kg	1000 nM	1800 nM				
Cc1cn(-c2nc3ccccc3[nH]2)c(CSSCc2c(C)c(=O)c(C)cn2-c2nc3ccccc3[nH]2)c(C)c1=O [I-A-2]		1000 nM	1300 nM	1.6 mg/kg			
COc1c(CSSCc2c(OC)c(=O)ccn2-c2nc3ccccc3[nH]2)n(-c2nc3ccccc3[nH]2)ccc1=O [I-A-3]		1100 nM	2000 nM	1.6 mg/kg			
Cc1ccc2[nH]c(-n3cc(C)c(=O)c(C)c3CSSCc3c(C)c(=O)c(C)cn3-c3nc4cc(C)ccc4[nH]3)nc2c1 [I-A-4]		1600 nM	2900 nM				
COc1c(CSSCc2c(OC)c(=O)ccn2-c2nc3cc(C)ccc3[nH]2)n(-c2nc3cc(C)ccc3[nH]2)ccc1=O [I-A-5]		1300 nM	2300 nM	1.6 mg/kg			
COc1ccc2[nH]c(-n3cc(C)c(=O)c(C)c3CSSCc3c(C)c(=O)c(C)cn3-c3nc4cc(OC)ccc4[nH]3)nc2c1 [I-A-6]		1300 nM	4100 nM				
COc1ccc2[nH]c(-n3ccc(=O)c(OC)c3CSSCc3c(OC)c(=O)ccn3-c3nc4cc(OC)ccc4[nH]3)nc2c1 [I-A-7, 2-((2-((1,4-dihydro-3-methoxy-1-(5-methoxy-1H-benzo[d]imidazol-2-yl)-4-oxopyridin-2-yl)methyl)disulfinyl)methyl)-3-methoxy-1-(5-methoxy-1H-benzo[d]imidazol-2-yl)pyridin-4(1H)-one]		1200 nM	4700 nM	1.6 mg/kg			
Cc1cn(-c2nc3cc(F)ccc3[nH]2)c(CSSCc2c(C)c(=O)c(C)cn2-c2nc3cc(F)ccc3[nH]2)c(C)c1=O [I-A-8]		1200 nM	1300 nM	1.6 mg/kg			
COc1c(CSSCc2c(OC)c(=O)ccn2-c2nc3cc(C(F)(F)F)ccc3[nH]2)n(-c2nc3cc(C(F)(F)F)ccc3[nH]2)ccc1=O [I-A-9]		1100 nM	1700 nM	1.6 mg/kg			
COc1c(CSSCc2c(OC)c(=O)ccn2-c2nc3cc(OC(F)F)ccc3[nH]2)n(-c2nc3cc(OC(F)F)ccc3[nH]2)ccc1=O [I-A-11]		1500 nM	3300 nM	1.6 mg/kg			
Cc1cn(-c2nc3ncccc3[nH]2)c(CSSCc2c(C)c(=O)c(C)cn2-c2nc3ncccc3[nH]2)c(C)c1=O [I-B-1, 2-((2-((1,4-dihydro-1-(1H-imidazo[4,5-b]pyridin-2-yl)-3,5-dimethyl-4-oxopyridin-2-yl)methyl)disulfinyl)methyl)-1-(1H-imidazo[4,5-b]pyridin-2-yl)-3,5-dimethylpyridin-4(1H)-one]		2800 nM	14000 nM	1.6 mg/kg			
COc1ccc2[nH]c(-n3ccc(=O)c(OC)c3CSSCc3c(OC)c(=O)ccn3-c3nc4nc(OC)ccc4[nH]3)nc2n1 [I-B-2]		2000 nM	8400 nM	1.6 mg/kg			
COc1ccc2[nH]c(-n3cc(C)c(=O)c(C)c3C[S+]([O-])[S+]([O-])Cc3c(C)c(=O)c(C)cn3-c3nc4nc(OC)ccc4[nH]3)nc2n1 (centres unmarked) [I-B-3, 2-((2-((1,4-dihydro-1-(5-methoxy-1H-imidazo[4,5-b]pyridin-2-yl)-3,5-dimethyl-4-oxopyridin-2-yl)methyl)disulfinyl)methyl)-1-(5-methoxy-1H-imidazo[4,5-b]pyridin-2-yl)-3,5-dimethylpyridin-4(1H)-one]	1.6 mg/kg				45% @ 3-30 uM		
COc1ccc2[nH]c([S+]([O-])Cc3ncc(C)c(OC)c3C)nc2c1 (centres unmarked) [Omeprazole, omeprazole]						3900 nM	4000 nM
